Entries after “also recorded” stand apart in the source; their conditions may differ.
Assays:
[1] = tested on: normal human keratinocytes; test: Induced differentiation of normal human keratinocytes; type: cell-based
Text: To determine the expression of FRMD4A mRNA in normal human skin we carried out in-situ hybridisations on normal human foreskin. […] Using the Zeiss PALM Laser Capture Microdissection system, samples were collected separately from the basal and granular layers of human abdomen skin sections. […] Levels of FRMD4A were contrary to this, with high levels in the less differentiated basal layer, which dropped to almost nothing in the more differentiated granular layer (FIG. 1B). Similarly, normal human keratinocytes grown in serum free culture were induced to differentiate, by the addition of AG1478 and BMP2/7 (FIG. 1C). Differentiation of the keratinocytes was confirmed by increased levels of transglutaminase in the presence of these agents alone compared to treatment with vehicle alone. Addition of both together led to expression of even higher levels of the differentiation marker TG-1. FRMD4A levels were high in the vehicle treated sample, but became barely detectable in the differentiated samples (FIG. 1C) showing that FRMD4A is associated with less differentiated cell types.

[2] = tested on: SCC cells; test: Incucyte timelapse growth of SCC cells (cell line not specified); type: cell-based, human; conditions: SCCs cultured on HA coated plates
Experimental: For Incucyte assays, 1000 cells were plated in triplicate for each condition, in a 48-well plate. Plates were imaged every 3 hours for 7 days.
Having established that FRMD4A has a functional role in SCC proliferation and tumour growth and that it is also modulating the differentiation of such cells, in part perhaps via cancer stem cells and is a key mediator of the Hippo pathway control in SCCs, the present inventors recognised that FRMD4A represents a potential target for therapeutic options. Currently many targeted antibody therapies are in clinical use or undergoing trials to determine their efficacy in the treatment of several malignant and non-malignant diseases. To test if any of the generated antibodies developed against FRMD4A may have a blocking effect on SCCs, the antibodies were added to cells grown in the Incucyte timelapse imaging system.

[3] = injection in the skin and knee joint; cited from earlier work
[4] = tested on: SCC13 back skin xenograft; test: SCC13 back skin xenograft, hyaluronic acid treatment; type: in vivo, mouse
Experimental: (§1) All mice used were NOD.Cg-Prkdc^scid I12rg^tm1Wj1/SzJ or NOD/SCID Gamma (NSG) as they are commonly known. Mice were originally purchased from the Jackson Laboratories (Maine, USA) and then bred in-house. Experiments were subject to Cancer Research UK ethical review and were performed under the terms of a U.K. Government Home Office license. Tongue xenografts were carried out using inhalation anaesthesia and injection into the mucosa with a 30 g needle and 1 ml syringe. Mice were grafted using inhalation anaesthesia. An area of skin on the back of each mouse was shaved and cleaned with a betadine solution. Using a 6 mm punch biopsy punch a full thickness wound was created, into which the silicone chamber was inserted and stapled in place. A preparation of cells could then be injected into the chamber. After one week the top of the silicone chamber was cut off to allow the tumour to develop exposed to the normal skin-air interface. After a further week the whole silicone chamber was carefully removed. Mice were scanned with the Xenogen IVIS following an i.p. injection of luciferin (10 μl/g).
Mice were grafted into the back skin with 1×10E6 SCC13 cells.
After one week an initial measurement was made with the Xenogen IVIS. Following this, each mouse was directly injected into the tumour with 200 μl of 0.1% HA. […]

[5] = tested on: SCC13 cells; test: Colony forming assay, SCC13; type: cell-based, human; conditions: plates coated with HA
Experimental: For colony forming assays, 100 cells were plated in triplicate in 10 cm plates. After 14 days, cultures were fixed and stained with 1% rhodamine B and 1% Nile blue (Acros Organic). Colony-forming efficiency was defined as the percentage of plated cells that formed a colony of three or more cells.

[6] = tested on: CD44 and FRMD4A staining; test: Immunostaining of cells grown on HA coated coverslips; type: cell-based, human
[7] = tested on: SCC25 tongue xenograft; test: SCC25 tongue xenograft, 17-DMAG treatment; type: in vivo, mouse; conditions: weekly i.p. injections, compared to vehicle control
Experimental: as §1
Mice were tongue grafted with 1×10E5 SCC25 cells. After one week an initial measurement was made with the Xenogen IVIS. Following this, each mouse was i.p injected with either 17-DMAG or vehicle control. […]

[8] = tested on: SCC13 cells; test: SCC13 cells grown in the presence of 17-DMAG in vitro; type: cell-based, human; conditions: range of concentrations

Compound: COc1cc2ncnc(Nc3cccc(Cl)c3)c2cc1OC [AG1478]
- FRMD4A levels [1]: downregulation of FRMD4A levels
- TG1 levels ([1]; differentiation marker): upregulation of TG1 levels

Compound: hyaluronic acid [HA]
- overall growth rate [2]: decrease in growth rate; also recorded: reduces the growth of SCCs
- toxic effects [3]: no apparent toxic effects
- survival ([4]; HA injection of xenograft tumours): increased survival
- tumour growth rate ([4]; weekly intra-tumour injection, compared with PBS): reduced growth rate; also recorded: reduced the growth of the tumour
- average colony area [5]: reduction in average colony area
- average colony staining intensity [5]: reduction
- colony forming efficiency [5]: reduction in colony forming efficiency
- CD44 staining [6]: increase in CD44 staining
- nuclear FRMD4A staining [6]: loss of nuclear FRMD4A staining

Compound: CO[C@H]1/C=C\C=C(/C)C(=O)NC2=CC(=O)C(NCCN(C)C)=C(C[C@@H](C)C[C@H](OC)[C@H](O)[C@@H](C)/C=C(\C)[C@@H]1OC(N)=O)C2=O [17-DMAG, 17-Dimethylaminoethylamino-17-demethoxygeldanamycin]
- progression of tumours [7]: slower progression of their tumours
- killing of cells in vitro [8]: readily killed over a range of concentrations; also recorded: dramatic effect

From US20140023589A1, “FRMD4A ANTAGONISTS AND THEIR USES” (CANCER RESEARCH TECHNOLOGY LIMITED, priority 2011, published 2014)
